Each molecule was assayed against T1, CDK12 complexed with Cyclin K (Homo sapiens, UniProt Q9NYV4) (assay: CDK Enzymatic Assays (HTRF, LANCE Ultra kinase assay), Example A1). Conditions: enzyme pre-incubated with compounds for 60 minutes prior to addition of ATP (1 mM final) and Ulight-peptide; reaction 60-90 minutes at room temperature.
T1 construct: GST (N)
Format: biochemical
From the text: Example A1. CDK Enzymatic Assays
The following activity of the CDK enzymes in complex with their respective cyclins we assayed: CDK1 complexed with Cyclin B1; CDK2 complexed with Cyclin E1; CDK4 complexed with Cyclin D1; CDK6 complexed with Cyclin D1; CDK6 complexed with Cyclin D3; CDK9 complexed with Cyclin T1; CDK7 complexed with Cyclin H/MAT1; CDK2 complexed with Cyclin A2; CDK5 complexed with p35; CDK12 complexed with Cyclin K; CDK13 complexed with Cyclin K. These in vitro enzyme activity are assayed using homogeneous time-resolved energy transfer (HTRF), which measures phosphorylation of a peptide substrate. The LANCER Ultra kinase assay (PerkinElmer) uses a ULight™-labeled EIF4E-binding protein 1 (THR37/46) peptide (DYSTTPGGTLFSTTPGTRI (SEQ ID NO: 1)) substrate and a Europium-labeled anti-phospho-4E-BP1 antibody (CDK2, CDK1, CDK4, CDK6, CDK9, CDK12, CDK13) or ULight™-labeled Myelin Basic Protein peptide (VTPRTPPP (SEQ ID NO: 2)) substrate and a Europium-labeled anti-phospho-MBP antibody (CDK7). Each CDK enzyme activity assays utilized human CDK co-expressed as N-terminal GST-tagged protein with its full length cyclin partner using a baculovirus expression system.
Enzyme was pre-incubated with compounds for 30 minutes (CDK1,2,4,6,9) or 60 minutes (CDK7, CDK12, CDK13) prior to addition of ATP and Ulight-peptide (1 mM and 50 nM final, respectively), in assay buffer containing 50 mM HEPES pH 7.5, 1 mM EGTA, 10 mM MgCl2, 2 mM DTT, 0.05 mg/mL BSA, and 0.01% Tween 20. The reaction was then incubated for 60-90 minutes at room temperature. The reactions were stopped by the addition of EDTA and Europium labeled antibody, for a final concentration of 15 mM and 1.0-1.5 nM, respectively. HTRF signals were read after 15-120 minutes. A ratio of fluorescence transferred to the labeled substrate (665 nm) relative to fluorescence of the Europium donor (620 nm) represents the extent of phosphorylation. Ratios for treated wells were normalized to DMSO only (100% activity) and no enzyme (0% activity) controls. Normalized data was analyzed using a three or four parameter dose response curve to determine IC50 for each compound and are shown in Table A. Control reference inhibitors were included on each plate.

T1 sequence (Q9NYV4 whole entry): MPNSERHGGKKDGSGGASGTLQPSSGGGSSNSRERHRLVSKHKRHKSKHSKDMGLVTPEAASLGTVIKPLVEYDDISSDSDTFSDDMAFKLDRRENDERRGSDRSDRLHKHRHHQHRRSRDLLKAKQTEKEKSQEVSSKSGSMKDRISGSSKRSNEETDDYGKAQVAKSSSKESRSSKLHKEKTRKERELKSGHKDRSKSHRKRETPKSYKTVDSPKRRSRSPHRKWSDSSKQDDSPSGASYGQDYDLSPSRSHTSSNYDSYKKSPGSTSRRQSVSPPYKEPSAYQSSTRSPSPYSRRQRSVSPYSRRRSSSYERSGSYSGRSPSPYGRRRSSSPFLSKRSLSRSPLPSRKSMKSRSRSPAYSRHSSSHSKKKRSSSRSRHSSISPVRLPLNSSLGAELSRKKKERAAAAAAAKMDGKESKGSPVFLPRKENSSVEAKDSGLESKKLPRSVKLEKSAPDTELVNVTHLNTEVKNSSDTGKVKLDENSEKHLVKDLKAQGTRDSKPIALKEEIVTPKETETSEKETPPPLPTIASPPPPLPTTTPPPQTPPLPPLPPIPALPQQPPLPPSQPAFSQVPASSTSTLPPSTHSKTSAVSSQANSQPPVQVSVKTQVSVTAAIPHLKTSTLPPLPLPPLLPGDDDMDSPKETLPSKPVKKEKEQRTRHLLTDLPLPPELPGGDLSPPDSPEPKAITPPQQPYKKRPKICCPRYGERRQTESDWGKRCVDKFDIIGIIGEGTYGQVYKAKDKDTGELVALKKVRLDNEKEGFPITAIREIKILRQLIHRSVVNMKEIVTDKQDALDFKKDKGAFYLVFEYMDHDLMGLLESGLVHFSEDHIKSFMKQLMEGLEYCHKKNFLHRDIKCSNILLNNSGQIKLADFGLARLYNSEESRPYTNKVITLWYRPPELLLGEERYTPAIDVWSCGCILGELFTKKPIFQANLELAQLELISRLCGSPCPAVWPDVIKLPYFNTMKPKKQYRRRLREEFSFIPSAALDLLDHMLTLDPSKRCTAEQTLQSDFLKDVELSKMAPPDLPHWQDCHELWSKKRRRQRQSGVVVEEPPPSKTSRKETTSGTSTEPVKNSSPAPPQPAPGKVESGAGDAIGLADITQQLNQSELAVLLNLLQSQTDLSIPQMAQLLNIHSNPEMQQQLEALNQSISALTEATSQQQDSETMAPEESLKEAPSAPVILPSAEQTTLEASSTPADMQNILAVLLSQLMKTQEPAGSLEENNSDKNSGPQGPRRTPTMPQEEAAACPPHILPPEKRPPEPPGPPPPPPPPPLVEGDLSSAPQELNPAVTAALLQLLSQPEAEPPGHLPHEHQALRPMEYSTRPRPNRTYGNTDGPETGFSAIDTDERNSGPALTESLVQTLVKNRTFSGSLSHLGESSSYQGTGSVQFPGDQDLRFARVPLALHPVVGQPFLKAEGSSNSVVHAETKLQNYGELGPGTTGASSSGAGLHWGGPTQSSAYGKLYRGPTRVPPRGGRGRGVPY
T1 sequence (O75909 whole entry partner): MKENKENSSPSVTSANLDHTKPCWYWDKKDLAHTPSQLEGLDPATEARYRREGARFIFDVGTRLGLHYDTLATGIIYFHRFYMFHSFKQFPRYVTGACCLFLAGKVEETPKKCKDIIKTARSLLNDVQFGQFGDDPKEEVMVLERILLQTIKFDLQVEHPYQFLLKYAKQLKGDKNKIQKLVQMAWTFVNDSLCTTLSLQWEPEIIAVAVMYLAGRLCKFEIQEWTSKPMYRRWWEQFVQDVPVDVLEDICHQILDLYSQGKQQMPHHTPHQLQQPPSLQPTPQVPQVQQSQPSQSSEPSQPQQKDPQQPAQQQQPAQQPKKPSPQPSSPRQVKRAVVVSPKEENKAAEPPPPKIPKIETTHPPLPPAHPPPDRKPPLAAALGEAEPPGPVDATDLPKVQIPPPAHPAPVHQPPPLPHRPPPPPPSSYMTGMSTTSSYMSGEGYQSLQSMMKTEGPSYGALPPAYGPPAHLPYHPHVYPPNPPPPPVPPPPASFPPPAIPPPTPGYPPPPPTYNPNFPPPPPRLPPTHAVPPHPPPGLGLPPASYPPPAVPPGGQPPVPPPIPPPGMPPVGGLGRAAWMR

Compared with `C=CC(=O)Nc1ccc2c(c1)ncn2[C@H]1CCC[C@@H](Nc2ncc(C#N)c(OC)n2)C1` [Example 79, N-(1-((1S,3R)-3-((5-Cyano-4-methoxypyrimidin-2-yl)amino)cyclohexyl)-1H-benzo[d]imidazol-5-yl)acrylamide], `C=CC(=O)Nc1ccc2c(ccn2[C@H]2CCC[C@@H](Nc3ncc(C#N)c(OC)n3)C2)c1` [Example 26, N-(1-((1S,3R)-3-((5-Cyano-4-methoxypyrimidin-2-yl)amino)cyclohexyl)-1H-indol-5-yl)acrylamide] is higher in IC50: less than 50 nM for the first, greater than 500 nM for the second.

First: C=CC(=O)Nc1ccc2c(c1)C(=O)N([C@H]1CCC[C@@H](Nc3cc(C)c(C#N)cn3)C1)C2 [Example 16, N-(2-((1S,3R)-3-((5-Cyano-4-methylpyridin-2-yl)amino)cyclohexyl)-3-oxoisoindolin-5-yl)acrylamide]
Second: C=CC(=O)Nc1ccc2c(c1)C(=O)N([C@H]1CCC[C@@H](Nc3ncc(C#N)c(C)n3)C1)C2 [Example 9, N-(2-((1S,3R)-3-((5-Cyano-4-methylpyrimidin-2-yl)amino)cyclohexyl)-3-oxoisoindolin-5-yl)acrylamide]
The IC50 of the first is higher: 50 to 500 nM for the first, less than 50 nM for the second. The second is the more potent here.

`C=CC(=O)Nc1ccc2c(c1)C(=O)N([C@H]1CCC[C@@H](Nc3ncc(C(F)(F)F)c(OC)n3)C1)C2` [Example 61, N-(2-((1S,3R)-3-((4-Methoxy-5-(trifluoromethyl)pyrimidin-2-yl)amino)cyclohexyl)-3-oxoisoindolin-5-yl)acrylamide] and `C=CC(=O)Nc1ccc2c(c1)C(=O)N([C@H]1CCC[C@@H](Nc3ncc(C)c(C(F)(F)F)n3)C1)C2` [Example 5, N-(2-((1S,3R)-3-((5-Methyl-4-(trifluoromethyl)pyrimidin-2-yl)amino)cyclohexyl)-3-oxoisoindolin-5-yl)acrylamide] cannot be ordered by IC50: less than 50 nM for the first, less than 50 nM for the second.

`C=CC(=O)Nc1cccc2c(N3CCC[C@@H](Nc4ncc(C#N)c(OC)n4)C3)nn(C)c12` [Example 35, (R)—N-(3-(3-((5-Cyano-4-methoxypyrimidin-2-yl)amino)piperidin-1-yl)-1-methyl-1H-indazol-7-yl)acrylamide] and `C=CC(=O)Nc1ccc2c(N3CCC[C@@H](Nc4ncc(C#N)c(OC)n4)C3)nn(C)c2c1` [Example 43, (R)—N-(3-(3-((5-Cyano-4-methoxypyrimidin-2-yl)amino)piperidin-1-yl)-1-methyl-1H-indazol-6-yl)acrylamide] cannot be ordered by IC50: less than 50 nM for the first, less than 50 nM for the second.

`C=CC(=O)Nc1ccc2oc(N3CCC[C@@H](Nc4ncc(C#N)c(OC)n4)C3)nc2c1` [Example 36, (R)—N-(2-(3-((5-Cyano-4-methoxypyrimidin-2-yl)amino)piperidin-1-yl)benzo[d]oxazol-5-yl)acrylamide] and `C=CC(=O)Nc1ccc2nc(N3CCC[C@@H](Nc4ncc(C#N)c(OC)n4)C3)sc2c1` [Example 46, (R)—N-(2-(3-((5-Cyano-4-methoxypyrimidin-2-yl)amino)piperidin-1-yl)benzo[d]thiazol-6-yl)acrylamide] cannot be ordered by IC50: less than 50 nM for the first, less than 50 nM for the second.

`C=CC(=O)Nc1nn(C)c2cc(N3CC[C@@H](Nc4ncc(C#N)c(OC)n4)C3)ncc12` [Example 2, (R)—N-(6-(3-((5-Cyano-4-methoxypyrimidin-2-yl)amino)pyrrolidin-1-yl)-1-methyl-1H-pyrazolo[4,3-c]pyridin-3-yl)acrylamide] and `C=CC(=O)Nc1nc2cccc(N3CC[C@@H](Nc4ncc(C#N)c(OC)n4)C3)n2n1` [Example 23, (R)—N-(5-(3-((5-Cyano-4-methoxypyrimidin-2-yl)amino)pyrrolidin-1-yl)-[1,2,4]triazolo[1,5-a]pyridin-2-yl)acrylamide] cannot be ordered by IC50: less than 50 nM for the first, less than 50 nM for the second.

First: C=CC(=O)Nc1ccc2c(cnn2[C@H]2CCC[C@@H](Nc3ncc(C#N)c(OC)n3)C2)c1 [Example 25, N-(1-((1S,3R)-3-((5-Cyano-4-methoxypyrimidin-2-yl)amino)cyclohexyl)-1H-indazol-5-yl)acrylamide]
Second: C=CC(=O)Nc1ccc2c(c1)C(=O)N([C@H]1CCC[C@@H](Nc3ncc(C#N)c(OC)n3)C1)C2 [Example 83, N-(2-((1S,3R)-3-((5-Cyano-4-methoxypyrimidin-2-yl)amino)cyclohexyl)-3-oxoisoindolin-5-yl)acrylamide]
The IC50 of the first is higher: 50 to 500 nM for the first, less than 50 nM for the second. The second is the more potent here.

`C=CC(=O)Nc1cc2nc(N3CCC(F)(F)[C@@H](Nc4ncc(C(F)(F)F)cn4)C3)n(C)c2cc1C` [Example 97, (S)—N-(2-(4,4-Difluoro-3-((5-(trifluoromethyl)pyrimidin-2-yl)amino)piperidin-1-yl)-1,6-dimethyl-1H-benzo[d]imidazol-5-yl)acrylamide] and `C=CC(=O)Nc1cc2nc(N3C[C@H](F)C[C@@H](Nc4ncc(C(F)(F)F)cn4)C3)n(C)c2cc1C(C)C` [Example 101, N-(2-((3R,5R)-3-Fluoro-5-((5-(trifluoromethyl)pyrimidin-2-yl)amino)piperidin-1-yl)-6-isopropyl-1-methyl-1H-benzo[d]imidazol-5-yl)acrylamide] cannot be ordered by IC50: less than 50 nM for the first, less than 50 nM for the second.

`C=CC(=O)Nc1ccc2c(c1)nc(N1CC[C@@H](F)[C@@H](Nc3ncc(C(F)(F)F)cn3)C1)n2C` [Example 90, N-(2-((3S,4R)-4-Fluoro-3-((5-(trifluoromethyl)pyrimidin-2-yl)amino)piperidin-1-yl)-1-methyl-1H-benzo[d]imidazol-5-yl)acrylamide] and `C=CC(=O)Nc1ccc2c(c1)nc(N1C[C@H](F)C[C@@H](Nc3ncc(C#N)cn3)C1)n2C` [Example 89, N-(2-((3R,5R)-3-((5-Cyanopyrimidin-2-yl)amino)-5-fluoropiperidin-1-yl)-1-methyl-1H-benzo[d]imidazol-5-yl)acrylamide] cannot be ordered by IC50: less than 50 nM for the first, less than 50 nM for the second.

`C=CC(=O)Nc1cccc2c1ncn2[C@H]1CCC[C@@H](Nc2ncc(C#N)cn2)C1` [Example 69, N-(1-((1S,3R)-3-((5-Cyanopyrimidin-2-yl)amino)cyclohexyl)-1H-benzo[d]imidazol-4-yl)acrylamide] and `C=CC(=O)Nc1ccc2c(c1)nnn2[C@H]1CCC[C@@H](Nc2ncc(C#N)cn2)C1` [Example 71, N-(1-((1S,3R)-3-((5-Cyanopyrimidin-2-yl)amino)cyclohexyl)-1H-benzo[d][1,2,3]triazol-5-yl)acrylamide] cannot be ordered by IC50: less than 50 nM for the first, less than 50 nM for the second.

`C=CC(=O)Nc1ccc2c(c1)C(=O)N([C@H]1CCC[C@@H](Nc3ncc(-c4cnn(C)c4)cn3)C1)C2` [Example 8, N-(2-((1S,3R)-3-((5-(1-Methyl-1H-pyrazol-4-yl)pyrimidin-2-yl)amino)cyclohexyl)-3-oxoisoindolin-5-yl)acrylamide] and `C=CC(=O)Nc1ccc2c(c1)C(=O)N([C@H]1CCC[C@@H](Nc3ncc(-c4ccc(OC)cc4)cn3)C1)C2` [Example 4, N-(2-((1S,3R)-3-((5-(4-Methoxyphenyl)pyrimidin-2-yl)amino)cyclohexyl)-3-oxoisoindolin-5-yl)acrylamide] cannot be ordered by IC50: greater than 500 nM for the first, greater than 500 nM for the second.

Compared with `C=CC(=O)Nc1ccc2c(c1)C(=O)N([C@H]1CCC[C@@H](Nc3ncc(Br)c(C(F)(F)F)n3)C1)C2` [Example 75, N-(2-((1S,3R)-3-((5-Bromo-4-(trifluoromethyl)pyrimidin-2-yl)amino)cyclohexyl)-3-oxoisoindolin-5-yl)acrylamide], `C=CC(=O)Nc1ccc2c(c1)C(=O)N([C@H]1CCC[C@@H](Nc3ncc(C)c(OC)n3)C1)C2` [Example 13, N-(2-((1S,3R)-3-((4-Methoxy-5-methylpyrimidin-2-yl)amino)cyclohexyl)-3-oxoisoindolin-5-yl)acrylamide] is higher in IC50: less than 50 nM for the first, 50 to 500 nM for the second. The first is the more potent here.

`C=CC(=O)Nc1ccc2c(c1)C(=O)N([C@H]1CCC[C@@H](Nc3ncc(C4CC4)cn3)C1)C2` [Example 11, N-(2-((1S,3R)-3-((5-Cyclopropylpyrimidin-2-yl)amino)cyclohexyl)-3-oxoisoindolin-5-yl)acrylamide] and `CC#CC(=O)Nc1ccc2c(c1)C(=O)N([C@H]1CCC[C@@H](Nc3ncc(C#N)c(OC)n3)C1)C2` [Example 60, N-(2-((1S,3R)-3-((5-Cyano-4-methoxypyrimidin-2-yl)amino)cyclohexyl)-3-oxoisoindolin-5-yl)but-2-ynamide] fall in the same range of IC50: 50 to 500 nM for the first, 50 to 500 nM for the second.

First: C=CC(=O)Nc1ccc2c(c1)nc(C(F)F)n2[C@H]1CCC[C@@H](Nc2ncc(C#N)cn2)C1 [Example 84, N-(1-((1S,3R)-3-((5-Cyanopyrimidin-2-yl)amino)cyclohexyl)-2-(difluoromethyl)-1H-benzo[d]imidazol-5-yl)acrylamide]
Second: C=C(Cl)C(=O)Nc1ccc2c(c1)nc([C@H]1CCC[C@@H](Nc3ncc(C#N)c(OC)n3)C1)n2C [Example 80, 2-Chloro-N-(2-((1S,3R)-3-((5-cyano-4-methoxypyrimidin-2-yl)amino)cyclohexyl)-1-methyl-1H-benzo[d]imidazol-5-yl)acrylamide]
The IC50 of the first is higher: 50 to 500 nM for the first, less than 50 nM for the second. The second is the more potent here.

Source: patent publication US12643881B2, “Bicyclic amine CDK12 inhibitors” (Incyte Corporation, priority 2021, dated 2026)
